In patent US20020004958A1, “Dyeing substrates” (Novozymes A/S, priority 1996, published 2002):
Entries after “also recorded” stand apart in the source; their conditions may differ.

Tests used:
[1] = test system: Salmonella tphimurium TA 98; test: Ames test for mutagenicity, with and without S9-mix; type: cell-based; settings: 100 μl of 50, 100 and 200 mM solutions in DMSO, with and without rat liver S9-mix
Experimental: The Ames test (Maron and Ames (1983)) was used to determine the mutagenic properties of the compounds. Nutrient media were prepared in the manner described by Venitt and Parry (1984). To 3×2 ml melted agar at 45° C. were added 100 μl of 50, 100 and 200 mM of solutions of the compounds dissolved in DMSO. By means of a pipette 100 μl of a well-grown culture of Salmonella tphimurium TA 98 (BIO-TEST gl. skolevej 47, 6731 Tiaereborg) were added to the same test-tube. The bacteria contain a frameshift mutation on the histinol-dehydrogenase gene and require histidin in order to grow. Mutagenic aromatic amines can cause the bacteria to mutate to His+ and they can then grow on the nutrient medium. The number of colonies after incubation therefore give a quantitative measure of the ability of the added compound to cause mutation. In all trials spontaneous mutations take place in the absence of a mutagen. These provide a measure of “background” mutation.
All trials were therefore carried out both with and without the addition of “S9-mix” from the livers of rats, this contains the P450 system. 0.5 ml of […] was added to each test-tube. The criteria for mutation are that increasing concentrations of the compound under investigation give a marked increase in the number of His+ mutants.

[2] = target: T1, horseradish peroxidase type VI-A (Armoracia rusticana, UniProt P00433); test: Peroxidase-catalysed oxidation of substrates, initial velocity (absorbency 492 nm) vs substrate concentration, Michaelis/Menten; type: biochemical; settings: for Kkat: Vmax/[E], worked out from peroxidase of 50,000 g/mol; for Properties as substrate for peroxidase (in words): peroxidase/hydrogen peroxide system, compared with OPD or 3,4-DABA
T1 construct: purchased Sigma 6782
T1 sequence (P00433 31-338 limits assumed): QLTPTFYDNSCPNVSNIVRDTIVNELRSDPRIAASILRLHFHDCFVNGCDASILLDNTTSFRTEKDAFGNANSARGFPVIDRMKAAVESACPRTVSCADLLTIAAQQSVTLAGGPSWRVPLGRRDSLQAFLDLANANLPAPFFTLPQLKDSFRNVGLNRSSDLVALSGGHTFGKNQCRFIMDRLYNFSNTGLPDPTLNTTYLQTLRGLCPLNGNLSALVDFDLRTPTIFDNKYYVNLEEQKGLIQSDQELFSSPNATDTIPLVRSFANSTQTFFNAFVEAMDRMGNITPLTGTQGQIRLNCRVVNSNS
Text: Absorbancy at 492 nm was used as a measure of the course of the reaction. The initial velocity was taken to be the absorbancy at 492 nm two minutes after the addition of the peroxidase to a mixture of the substrate and hydrogen peroxide in a buffer with a pH of 5.0. The wavelength of 492 nm was chosen because it is employed in the standard assay procedures for OPD.
By varying the concentration of the substrate and at the same time measuring the initial velocity of the reaction it is posible to apply the Michaelis/Menten equation to the system.
Under ideal conditions the values determined experimentally will approach the value of the expression: [formula]
where [S] is the concentration of the substrate, Vmax is the maximum initial […] which is reached in the particular assay. Km is defined as the concentration of the substrate at Vmax/2. A small Km value will therefore be characteristic for an enzyme system where a low concentration of the substrates produces saturation of the enzyme.
The expression implies that the initial velocity will increase with increasing concentration of the substrate, but the curve for the velocity will flatten out and approach Vmax for very high concentrations of the substrate. In actual fact the parameter Kkat be calculated as Vmax/[E] where [E] is the molar concentration of the enzyme in the reaction. Kkat is the same as min^−1 and reflects the activity of the enzyme in a saturated solution upon the substrate.
The following solutions were prepared for use in the enzyme assay:
A 50 mM phosphate/citrate buffer with a pH of 5.0 was made by mixing a 50 mm Na2HPO4 solution and a 50 mm solution of citric acid. The pH was measured while mixing was in progress.
15 μl of a 30% solution of hydrogen peroxide (PERHYDROL, Merck) was thinned down with 25 ml of the assay buffer.
The stabilizing buffer for peroxidase, i.e. a buffer which stabilizes the enzyme, was prepared according to the method of Olsen and Little (1983). A 0.1M Na-acetate buffer, which was 0.5M in terms of CaCl2 was adjusted to pH 5.6.
10 mg of horseradish peroxidase type VI-A (Sigma no. 6782) were dissolved in 10 ml of the stabilizing buffer. This was stored at −15° C.
The standard peroxidase solution was diluted to 1:1000 with the 10 ml assay-buffer solution in 10 μl standard solution.
0.5 mmol of each substrate in 5 ml DMF.
The standard solutions were diluted by 1:10 with the assay buffer. Before being used the substrate solutions were diluted by 1:10. 0.5 ml of the standard solution was thinned down with 4.5 ml of the assay buffer.
The concentration of the peroxidase was held constant at 50 ng/ml during the whole investigation. By using the volume of substrate and the volumes of 10 vol-% DMF solution as given in table 4 it was possible to employ a constant reaction volume and a constant concentration of DMF. For all measurements there was used 1550 μl buffer and 50 μl bench solution of peroxidase. The total volume is then as follows: 300 μI DMF and substrate solution, 1550 μl buffer, […] bench solution of peroxidase and 50 μl hydrogen peroxide solution. That is 2000 μl in total.
The results of the measurements of initial velocities are stated in units of absorbency and not in molar units. In order to be able to measure the “true” velocity of reaction it is necessary to isolate the oxidation product for each substrate and determine the molar extinction coefficient. The value of Kkat is worked out from 1 mole of peroxidase of 50,000 g/mol.

[3] = background statement; cited from earlier work

Compound | Kkat [2] | Properties as substrate for peroxidase (in words) [2] | melting point [°C] | also measured
Nc1ccccc1N [OPD, o-phenylendiamine] | 1.6 * 10^8 1*mol^−1*min^−1 | – | – | Mutagenic properties (His+ mutants with increasing concentration) [1]: has mutagenic properties; Carcinogenicity (known) [3]: carcinogenic; Mutagenicity (known) [3]: mutagenic; also recorded: not a direct mutagen
Nc1ccccc1 [aniline] | – | – | – | Toxicity (generally considered) [3]: very toxic
CCn1c(=NN=c2sc3cc(S(=O)(=O)O)ccc3n2CC)sc2cc(S(=O)(=O)O)ccc21 [ABTS, 2,2-azino-di (3-ethyl-benzo thiazolin-6-sulphonic acid)] | – | – | – | Mutagenicity (known) [3]: mutagent
Nc1ccc(C(=O)O)cc1 [PABA, p-amino benzoic acid] | – | – | – | Toxicity (generally considered) [3]: non-toxic
CCOC(=O)c1ccc(N)c(N)c1 [ethyl ester, 3,4-diamino benzoic acid ethyl ester] | 2.7 * 10^8 1*mol^−1*min^−1 | significantly improved properties than 3,4-DABA; also recorded: very high Vmax | 112 to 113 | –
Nc1ccc(C(=O)O)cc1N [3,4-DABA, 3,4-diamino benzoic acid] | 2.0 * 10^8 1*mol^−1*min^−1 | considerably poorer substrate for peroxidase than is OPD; also recorded: higher Km-value at the same Vmax when compared with OPD | – | –
COC(=O)c1ccc(N)c(N)c1 [methyl ester, 3,4-diaminobenzoic acid methyl ester] | 2.2 * 10^8 1*mol^−1*min^−1 | significantly improved properties than 3,4-DABA | 108 to 109 | –
CC(C)OC(=O)c1ccc(N)c(N)c1 [isopropyl ester, 3,4-diamino benzoic acid isopropyl ester] | 2.2 * 10^8 1*mol^−1*min^−1 | significantly improved properties than 3,4-DABA | 73 to 74 | –
